Data as given in paper PMC9389372 (RSC Advances, 2022).

Tests used:
Format in all cases: biochemical
[1] = target: Human acetylcholinesterase (Homo sapiens, UniProt P22303); assay: AChE inhibition, modified Ellman's spectrophotometric method; conditions: for inhibition at 1000 µM: read-out: AChE % inhibition, 10^−3 M; for inhibition at 100 µM: read-out: AChE % inhibition, 10^−4 M
[2] = target: human butyrylcholinesterase (Homo sapiens, UniProt P06276); assay: BChE inhibition, modified Ellman's spectrophotometric method; conditions: for inhibition at 100 µM / inhibition at 1000 µM: read-out: BChE % inhibition
Chain of human butyrylcholinesterase (P06276 29-602): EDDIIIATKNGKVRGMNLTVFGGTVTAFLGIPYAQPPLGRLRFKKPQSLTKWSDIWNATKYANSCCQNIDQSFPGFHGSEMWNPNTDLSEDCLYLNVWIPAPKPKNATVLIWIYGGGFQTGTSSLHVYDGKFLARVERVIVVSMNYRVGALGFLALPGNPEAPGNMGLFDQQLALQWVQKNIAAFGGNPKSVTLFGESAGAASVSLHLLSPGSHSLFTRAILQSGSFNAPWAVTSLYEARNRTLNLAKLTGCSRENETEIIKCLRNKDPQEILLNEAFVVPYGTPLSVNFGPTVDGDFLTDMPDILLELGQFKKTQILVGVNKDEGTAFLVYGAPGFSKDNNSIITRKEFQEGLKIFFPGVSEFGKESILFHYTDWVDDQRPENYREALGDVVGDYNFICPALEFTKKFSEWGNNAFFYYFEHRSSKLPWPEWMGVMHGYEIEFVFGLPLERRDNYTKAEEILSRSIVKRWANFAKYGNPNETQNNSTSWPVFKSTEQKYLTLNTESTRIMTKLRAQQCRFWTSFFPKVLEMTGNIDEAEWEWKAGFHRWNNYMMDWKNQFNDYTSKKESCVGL

[3] = target: T1, MAO-A (Homo sapiens, UniProt P21397); assay: MAO-A inhibition, in vitro fluorometric method; conditions: for inhibition at 100 µM / inhibition at 1000 µM: read-out: MAO-A % inhibition
T1 sequence (P21397 1-527): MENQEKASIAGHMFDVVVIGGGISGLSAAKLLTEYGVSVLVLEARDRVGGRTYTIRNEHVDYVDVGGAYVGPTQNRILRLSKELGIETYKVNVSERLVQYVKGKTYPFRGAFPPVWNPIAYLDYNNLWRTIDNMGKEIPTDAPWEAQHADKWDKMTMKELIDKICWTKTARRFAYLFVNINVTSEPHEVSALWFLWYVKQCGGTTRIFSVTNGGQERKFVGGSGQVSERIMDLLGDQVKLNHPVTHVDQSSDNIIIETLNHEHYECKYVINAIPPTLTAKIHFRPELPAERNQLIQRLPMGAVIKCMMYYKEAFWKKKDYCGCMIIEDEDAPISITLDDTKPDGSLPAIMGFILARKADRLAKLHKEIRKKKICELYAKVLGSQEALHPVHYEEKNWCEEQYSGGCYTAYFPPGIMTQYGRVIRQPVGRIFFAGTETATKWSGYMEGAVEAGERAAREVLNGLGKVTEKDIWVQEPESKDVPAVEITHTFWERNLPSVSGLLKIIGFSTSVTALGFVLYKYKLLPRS

[4] = target: T2, MAO-B (Homo sapiens, UniProt P27338); assay: MAO-B inhibition, in vitro fluorometric method; conditions: for inhibition at 1000 µM: read-out: MAO-B % inhibition, 10^−3 M; for inhibition at 100 µM: read-out: MAO-B % inhibition, 10^−4 M
T2 sequence (P27338 1-520): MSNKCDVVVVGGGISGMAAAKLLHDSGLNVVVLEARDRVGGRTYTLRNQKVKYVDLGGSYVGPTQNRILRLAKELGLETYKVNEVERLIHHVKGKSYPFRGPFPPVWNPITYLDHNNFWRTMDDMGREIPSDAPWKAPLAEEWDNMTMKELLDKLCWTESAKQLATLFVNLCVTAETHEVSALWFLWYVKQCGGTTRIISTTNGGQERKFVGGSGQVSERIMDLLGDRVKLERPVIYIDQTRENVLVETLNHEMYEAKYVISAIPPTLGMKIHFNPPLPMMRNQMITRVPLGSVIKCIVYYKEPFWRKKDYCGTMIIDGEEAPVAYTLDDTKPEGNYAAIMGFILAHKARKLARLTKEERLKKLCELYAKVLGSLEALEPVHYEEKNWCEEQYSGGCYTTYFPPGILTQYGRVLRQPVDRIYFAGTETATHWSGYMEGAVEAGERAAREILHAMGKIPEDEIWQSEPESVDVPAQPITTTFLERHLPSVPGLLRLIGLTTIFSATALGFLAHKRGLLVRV

[5] = target: beta amyloid 1–42 (Aβ42) (Homo sapiens, UniProt P05067); assay: fluorometric beta amyloid 1–42; conditions: for inhibition at 0.01 µM / inhibition at 0.1 µM / inhibition at 1 µM / inhibition at 10 µM: read-out: Percent inhibition of beta amyloid 1–42 (Aβ42) peptide aggregation
Chain of beta amyloid 1–42 (Aβ42) (P05067 672-713): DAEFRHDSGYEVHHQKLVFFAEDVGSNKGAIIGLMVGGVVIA

Chain of Human acetylcholinesterase (P22303 32-614): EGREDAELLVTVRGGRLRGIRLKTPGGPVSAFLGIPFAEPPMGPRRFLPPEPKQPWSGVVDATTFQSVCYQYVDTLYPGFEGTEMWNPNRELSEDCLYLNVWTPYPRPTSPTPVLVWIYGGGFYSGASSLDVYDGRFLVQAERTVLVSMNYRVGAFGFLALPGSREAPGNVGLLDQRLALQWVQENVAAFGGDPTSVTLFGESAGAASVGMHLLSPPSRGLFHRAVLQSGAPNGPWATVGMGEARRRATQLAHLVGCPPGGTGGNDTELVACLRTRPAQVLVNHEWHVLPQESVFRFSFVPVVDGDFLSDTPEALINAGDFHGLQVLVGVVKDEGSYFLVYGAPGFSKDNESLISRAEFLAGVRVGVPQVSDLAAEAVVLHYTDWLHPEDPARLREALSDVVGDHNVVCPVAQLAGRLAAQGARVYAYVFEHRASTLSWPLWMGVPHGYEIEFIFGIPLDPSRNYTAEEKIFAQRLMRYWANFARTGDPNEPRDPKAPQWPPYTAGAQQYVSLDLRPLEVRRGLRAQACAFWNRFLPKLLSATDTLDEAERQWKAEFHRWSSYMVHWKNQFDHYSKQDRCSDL

Structure (SMILES) | IC50 [1] [µM] | inhibition at 1000 µM [1] [%] | IC50 [2] [µM] | inhibition at 100 µM [2] [%] | inhibition at 1000 µM [2] [%] | IC50 [3] [µM] | inhibition at 100 µM [3] [%] | inhibition at 1000 µM [3] [%] | IC50 [4] [µM] | IC50 [5] [µM] | inhibition at 0.01 µM [5] [%] | inhibition at 0.1 µM [5] [%] | inhibition at 1 µM [5] [%] | inhibition at 10 µM [5] [%] | inhibition at 1000 µM [4] [%] | inhibition at 100 µM [4] [%] | inhibition at 100 µM [1] [%]
C#CCN1CCN(Cc2ccc(C(=O)Nc3nc4ccccc4s3)cc2)CC1 [4d, N-(Benzo[d]thiazol-2-yl)-4-((4-(prop-2-yn-1-yl)piperazine-1-yl)methyl)benzamide] | 0.0896 ± 0.0032 | 91.6 ± 1.3 | > 1000 | 28.4 ± 0.9 | 37.1 ± 0.8 | > 100 | 39.7 ± 0.9 | 57.6 ± 0.9 | 0.11 ± 0.0043 | 0.242 ± 0.0097 | 36.2 ± 1 | 55.2 ± 1.4 | 81.5 ± 2.5 | 89.8 ± 3 |  |  | 
COc1ccc2sc(NC(=O)c3ccc(CN4CCN(C)CC4)cc3)nc2c1 [4h, N-(5-Methoxybenzo[d]thiazol-2-yl)-4-((4-methylpiperazine-1-yl)methyl)benzamide] | 0.0649 ± 0.0029 | 92.3 ± 1.1 | > 1000 | 27 ± 0.7 | 33.5 ± 0.8 | > 100 | 38.5 ± 0.6 | 60.5 ± 0.9 | 0.0851 ± 0.0038 | 0.296 ± 0.013 | 41.8 ± 1 | 64.8 ± 1.9 | 83.2 ± 3.3 | 90.7 ± 2.9 |  |  | 
COc1ccc2sc(NC(=O)c3ccc(CN4CCN(CCCN(C)C)CC4)cc3)nc2c1 [4n, 4-((4-(3-(Dimethylamino)propyl)piperazine-1-yl)methyl)-N-(5-methoxybenzo[d]thiazol-2-yl)benzamide] | 0.0421 ± 0.0018 | 95.3 ± 1.7 | > 1000 | 30.4 ± 0.9 | 40.9 ± 0.9 | > 100 | 38.8 ± 0.7 | 60.1 ± 0.8 | > 100 |  |  |  |  |  | 70.3 ± 1.3 | 41 ± 0.9 | 
C=CCN1CCN(Cc2ccc(C(=O)Nc3nc4cc(OC)ccc4s3)cc2)CC1 [4j, 4-((4-Allylpiperazine-1-yl)methyl)-N-(5-methoxybenzo[d]thiazol-2-yl)benzamide] | > 100 | 82.5 ± 1.5 | > 1000 | 22.6 ± 0.8 | 32.9 ± 0.8 | > 1000 | 32.9 ± 0.7 | 45.2 ± 0.9 | > 100 |  |  |  |  |  | 74.5 ± 1.1 | 43.5 ± 0.8 | 47.6 ± 0.8
CC(C)N1CCN(Cc2ccc(C(=O)Nc3nc4ccccc4s3)cc2)CC1 [4e, N-(Benzo[d]thiazol-2-yl)-4-((4-isopropylpiperazine-1-yl)methyl)benzamide] | > 100 | 83.9 ± 1.7 | > 1000 | 26.8 ± 0.7 | 39.1 ± 0.8 | > 1000 | 33.8 ± 0.7 | 44.7 ± 0.9 | > 100 |  |  |  |  |  | 72.7 ± 1.1 | 44.6 ± 0.8 | 46.9 ± 0.8
COc1ccc2sc(NC(=O)c3ccc(CN4CCN(C(C)C)CC4)cc3)nc2c1 [4l, 4-((4-Isopropylpiperazine-1-yl)methyl)-N-(5-methoxybenzo[d]thiazol-2-yl)benzamide] | > 100 | 81.7 ± 1.3 | > 1000 | 24.3 ± 0.7 | 38.1 ± 0.9 | > 1000 | 34 ± 0.9 | 40.6 ± 0.9 | > 100 |  |  |  |  |  | 77.9 ± 1.4 | 40.7 ± 0.9 | 48.1 ± 0.9
O=C(NCCN1CCOCC1)c1ccc(Cl)cc1 [Moc., moclobemide, reference compound] |  |  |  |  |  |  | 82.1 ± 2.7 | 94.1 ± 2.8 |  |  |  |  |  |  |  |  | 
COc1ccc2sc(NC(=O)c3ccc(CN4CCN(CCN(C)C)CC4)cc3)nc2c1 [4m, 4-((4-(2-(Dimethylamino)ethyl)piperazine-1-yl)methyl)-N-(5-methoxybenzo[d]thiazol-2-yl)benzamide] | 0.0278 ± 0.001 | 95.3 ± 1.2 | > 1000 | 31.9 ± 0.8 | 42.4 ± 0.8 | > 100 | 37.9 ± 0.8 | 61.3 ± 0.9 | 0.0567 ± 0.0022 | 0.199 ± 0.0088 | 53.6 ± 1 | 72.5 ± 2.2 | 88.9 ± 2 | 94.7 ± 2.1 |  |  | 
CN1CCN(Cc2ccc(C(=O)Nc3nc4ccccc4s3)cc2)CC1 [4a, N-(Benzo[d]thiazol-2-yl)-4-((4-methylpiperazine-1-yl)methyl)benzamide] | 0.0563 ± 0.0025 | 93.3 ± 1.4 | > 1000 | 26.5 ± 0.8 | 38.6 ± 0.7 | > 100 | 38.6 ± 0.7 | 55.3 ± 0.9 | 0.0674 ± 0.0031 | 0.256 ± 0.011 | 47.4 ± 1.1 | 70.4 ± 2.8 | 86.4 ± 2.7 | 91.9 ± 3.1 |  |  | 
CCN1CCN(Cc2ccc(C(=O)Nc3nc4ccccc4s3)cc2)CC1 [4b, N-(Benzo[d]thiazol-2-yl)-4-((4-ethylpiperazine-1-yl)methyl)benzamide] | > 100 | 85.6 ± 1.3 | > 1000 | 24.4 ± 0.6 | 35.7 ± 0.9 | > 1000 | 36.4 ± 0.8 | 46.5 ± 0.8 | > 100 |  |  |  |  |  | 73.3 ± 1.2 | 42.3 ± 0.8 | 47.6 ± 0.8
CN(C)CCCN1CCN(Cc2ccc(C(=O)Nc3nc4ccccc4s3)cc2)CC1 [4g, N-(Benzo[d]thiazol-2-yl)-4-((4-(3-(dimethylamino)propyl)piperazine-1-yl)methyl)benzamide] | 0.0367 ± 0.0014 | 94.3 ± 1 | > 1000 | 30.9 ± 0.8 | 41.5 ± 0.8 | > 100 | 40.1 ± 0.9 | 64.9 ± 1.1 | > 100 |  |  |  |  |  | 74.2 ± 1 | 42.5 ± 0.9 | 
CCN1CCN(Cc2ccc(C(=O)Nc3nc4cc(OC)ccc4s3)cc2)CC1 [4i, 4-((4-Ethylpiperazine-1-yl)methyl)-N-(5-methoxybenzo[d]thiazol-2-yl)benzamide] | > 100 | 86.9 ± 1.2 | > 1000 | 25.2 ± 0.9 | 39.8 ± 0.9 | > 1000 | 30.6 ± 0.7 | 43.8 ± 0.9 | > 100 |  |  |  |  |  | 75.6 ± 1.2 | 41.7 ± 0.9 | 48 ± 0.9
C#CCN1CCN(Cc2ccc(C(=O)Nc3nc4cc(OC)ccc4s3)cc2)CC1 [4k, N-(5-Methoxybenzo[d]thiazol-2-yl)-4-((4-(prop-2-yn-1-yl)piperazine-1-yl)methyl)benzamide] | 0.102 ± 0.0048 | 90.3 ± 1.5 | > 1000 | 26.4 ± 0.7 | 30.4 ± 0.7 | > 100 | 39.9 ± 0.8 | 58.6 ± 0.9 | 0.124 ± 0.0058 |  | 35.4 ± 1 | 48.9 ± 1.3 | 77.7 ± 2.7 | 87.1 ± 3.2 |  |  | 
C=CCN1CCN(Cc2ccc(C(=O)Nc3nc4ccccc4s3)cc2)CC1 [4c, 4-((4-Allylpiperazine-1-yl)methyl)-N-(benzo[d]thiazol-2-yl)benzamide] | > 100 | 82.8 ± 1.5 | > 1000 | 20.2 ± 0.7 | 30.9 ± 0.7 | > 1000 | 34.6 ± 0.8 | 48.3 ± 0.9 | > 100 |  |  |  |  |  | 69.6 ± 1.2 | 40.3 ± 0.9 | 48.2 ± 0.9
